Source: PMC3156297 (2011)

Target: T1, soluble epoxide hydrolase (sEH) (Homo sapiens, UniProt P34913)
T1 sequence (P34913 1-555): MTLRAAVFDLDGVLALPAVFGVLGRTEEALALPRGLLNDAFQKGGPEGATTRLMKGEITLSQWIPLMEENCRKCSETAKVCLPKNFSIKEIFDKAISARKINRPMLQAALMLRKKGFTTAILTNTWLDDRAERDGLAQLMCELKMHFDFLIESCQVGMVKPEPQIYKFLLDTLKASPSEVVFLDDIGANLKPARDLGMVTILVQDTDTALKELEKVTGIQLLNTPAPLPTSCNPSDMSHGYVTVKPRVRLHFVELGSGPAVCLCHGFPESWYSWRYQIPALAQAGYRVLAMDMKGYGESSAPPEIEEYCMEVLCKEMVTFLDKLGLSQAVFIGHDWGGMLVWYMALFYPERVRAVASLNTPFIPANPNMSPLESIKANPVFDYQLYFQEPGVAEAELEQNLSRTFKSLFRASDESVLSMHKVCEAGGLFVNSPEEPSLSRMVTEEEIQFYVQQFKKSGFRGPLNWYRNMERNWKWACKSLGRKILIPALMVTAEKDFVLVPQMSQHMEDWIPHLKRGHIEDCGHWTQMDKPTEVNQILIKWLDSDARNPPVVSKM
Test: recombinant enzyme inhibition
Assay type: biochemical

- Ki: 96 nM
SMILES: O=C(Nc1ccc(Cl)cc1)Nc1ccc(Cl)c(Cl)c1 [TCC, 3,4,4′-trichlorocarbanilide]
